# T1: OrnEc (Escherichia coli, UniProt P0A784)
# T1 sequence (P0A784 1-181): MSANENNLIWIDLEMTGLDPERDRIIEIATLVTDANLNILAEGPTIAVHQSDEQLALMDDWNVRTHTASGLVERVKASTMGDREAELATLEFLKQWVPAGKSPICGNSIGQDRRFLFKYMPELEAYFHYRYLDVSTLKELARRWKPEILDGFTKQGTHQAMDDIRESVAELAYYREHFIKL
# T2: GdpP(82–659)Bs (Bacillus subtilis, UniProt P37484)
# T2 construct: cytoplasmic portion, residues 82-659; N-terminal 6xHis tag kept; expressed in E. coli
# T2 sequence (P37484 82-659): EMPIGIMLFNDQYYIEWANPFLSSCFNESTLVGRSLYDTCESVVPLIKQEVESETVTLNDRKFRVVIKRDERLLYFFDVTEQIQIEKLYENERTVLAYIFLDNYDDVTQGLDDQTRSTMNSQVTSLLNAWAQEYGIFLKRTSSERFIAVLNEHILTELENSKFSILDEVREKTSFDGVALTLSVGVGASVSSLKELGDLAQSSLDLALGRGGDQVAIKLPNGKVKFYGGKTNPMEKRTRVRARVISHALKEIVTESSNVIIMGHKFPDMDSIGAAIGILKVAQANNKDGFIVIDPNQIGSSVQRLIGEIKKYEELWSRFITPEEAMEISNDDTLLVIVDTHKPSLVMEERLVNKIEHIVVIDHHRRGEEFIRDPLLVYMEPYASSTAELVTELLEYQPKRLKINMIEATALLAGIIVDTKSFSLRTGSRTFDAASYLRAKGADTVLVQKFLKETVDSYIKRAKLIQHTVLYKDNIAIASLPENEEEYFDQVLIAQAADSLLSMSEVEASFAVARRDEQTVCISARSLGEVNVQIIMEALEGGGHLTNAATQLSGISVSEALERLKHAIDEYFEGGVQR
# B1: NrnABs (Bacillus subtilis subsp. subtilis str. 168) (protein)
# chain: MKTELIRTISLYDTIILHRHVRPDPDAYGSQCGLTEILRETYPEKNIFAVGTPEPSLSFLYSLDEVDNETYEGALVIVCDTANQERIDDQRYPSGAKLMKIDHHPNEDPYGDLLWVDTSASSVSEMIYELYLEGKEHGWKLNTKAAELIYAGIVGDTGRFLFPNTTEKTLKYAGELIQYPFSSSELFNQLYETKLNVVKLNGFIFQNVSLSENGAASVFIKKDTLEKFGTTASEASQLVGTLGNISGIRAWVFFVEEDDQIRVRFRSKGPVINGLARKYNGGGHPLASGASIYSWDEADRILADLETLCKEHE
# notes: full length; N-terminal 10xHis-SUMO tag cleaved by bdSENP1; expressed in E. coli T7 Express
# Key:
# NrnABs = molecular target: T3, NrnABs (Bacillus subtilis, UniProt O34600, D156N/D80N); assay: DRaCALA
# T3 construct: gene nrnA
# T3 sequence (O34600 whole entry D80N/D156N): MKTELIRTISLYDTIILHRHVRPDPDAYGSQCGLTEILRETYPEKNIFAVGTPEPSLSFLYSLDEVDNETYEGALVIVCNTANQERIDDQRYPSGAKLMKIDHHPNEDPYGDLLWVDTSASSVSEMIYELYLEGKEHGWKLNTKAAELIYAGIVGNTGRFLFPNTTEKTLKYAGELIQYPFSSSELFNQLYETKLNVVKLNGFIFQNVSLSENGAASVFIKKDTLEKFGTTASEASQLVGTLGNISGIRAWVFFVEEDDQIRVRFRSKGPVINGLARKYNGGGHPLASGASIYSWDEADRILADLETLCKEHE
# OrnEc = molecular target: T1, OrnEc; assay: cleavage of […]'-32P RNA mixture, denaturing PAGE; format: biochemical; conditions: 20 nM enzyme; GG is the 2-mer of the 2-7 and 10-mer mix; pH 8.0, 100 mM NaCl, Mg or Mn; labelled compound
# CnpBMs = molecular target: T4, CnpBMs (Mycolicibacterium smegmatis, UniProt A0QVM9); assay: cleavage of […]-c-di-AMP, denaturing PAGE; format: biochemical; conditions: 100 nM enzyme, 1 uM substrate; pH 8.0, 300 mM NaCl, 200 uM MnCl2, room temperature; labelled compound
# T4 construct: gene MSMEG_2630
# T4 sequence (A0QVM9 1-340): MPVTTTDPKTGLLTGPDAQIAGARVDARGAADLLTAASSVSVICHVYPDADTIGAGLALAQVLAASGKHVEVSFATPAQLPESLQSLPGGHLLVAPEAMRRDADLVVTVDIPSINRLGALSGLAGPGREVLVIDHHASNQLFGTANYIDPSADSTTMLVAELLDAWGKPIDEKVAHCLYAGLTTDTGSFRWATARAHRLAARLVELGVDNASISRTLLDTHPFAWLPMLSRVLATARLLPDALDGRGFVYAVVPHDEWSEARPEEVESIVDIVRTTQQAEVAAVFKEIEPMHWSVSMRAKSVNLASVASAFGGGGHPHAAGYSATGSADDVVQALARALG
# CnpBMt = CnpBMt (Mycobacterium tuberculosis, UniProt P71615); assay: cleavage of […]-c-di-AMP, denaturing PAGE; format: biochemical; conditions: 100 nM enzyme, 1 uM substrate; pH 8.0, 300 mM NaCl, 200 uM MnCl2, room temperature; labelled compound
# Chain of CnpBMt (P71615 whole entry): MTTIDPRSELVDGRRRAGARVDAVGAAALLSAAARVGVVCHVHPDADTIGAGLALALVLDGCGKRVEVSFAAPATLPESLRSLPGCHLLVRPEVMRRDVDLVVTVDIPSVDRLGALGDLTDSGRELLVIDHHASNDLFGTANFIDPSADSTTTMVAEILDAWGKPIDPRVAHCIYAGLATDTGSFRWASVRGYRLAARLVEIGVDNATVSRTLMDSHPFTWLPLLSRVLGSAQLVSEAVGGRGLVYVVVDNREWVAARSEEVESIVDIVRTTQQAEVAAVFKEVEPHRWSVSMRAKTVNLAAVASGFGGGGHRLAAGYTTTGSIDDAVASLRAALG
# GdpP(82–659)Bs = molecular target: T2, GdpP(82–659)Bs; assay: cleavage of […]-c-di-AMP, denaturing PAGE; format: biochemical; conditions: 100 nM enzyme, 1 uM substrate; pH 8.0, 300 mM NaCl, 200 uM MnCl2, room temperature; labelled compound; positive control
# [1] = substrate: Nc1ccn([C@@H]2O[C@H](COP(=O)(O)O[C@H]3[C@@H](O)[C@H](n4ccc(N)nc4=O)O[C@@H]3COP(=O)(O)O[C@H]3[C@@H](O)[C@H](n4cnc5c(N)ncnc54)O[C@@H]3COP(=O)(O)O)[C@@H](O)[C@H]2O)c(=O)n1; assay: continuous PPDK/luciferase coupled assay of AMP release; format: biochemical, Bacillus subtilis; conditions: 10 mM MgCl2, 0.5 mM MnCl2, pH 8.0, 25 C, value assigned to ACC by printed order (AA or ACC), 5'-phosphate inferred from AMP release
# [2] = substrate: Nc1ncnc2c1ncn2[C@@H]1O[C@H](COP(=O)(O)O[C@H]2[C@@H](O)[C@H](n3cnc4c(N)ncnc43)O[C@@H]2COP(=O)(O)O)[C@@H](O)[C@H]1O; assay: as above; format: biochemical, Bacillus subtilis; conditions: 10 mM MgCl2, 0.5 mM MnCl2, pH 8.0, 25 C, value assigned to AA by printed order (AA or ACC), 5'-phosphate inferred from 2 AMP per AA
molecule,measurement,setting,value
Nc1ncnc2c1ncn2[C@@H]1O[C@H](COP(=O)(O)O[C@H]2[C@@H](O)[C@H](n3cnc4c(N)ncnc43)O[C@@H]2COP(=O)(O)O)[C@@H](O)[C@H]1O [AA],Kd,NrnABs,450 ± 30 nM
Nc1ccn([C@@H]2O[C@H](COP(=O)(O)O)[C@@H](OP(=O)(O)OC[C@H]3O[C@@H](n4cnc5c(N)ncnc54)[C@H](O)[C@@H]3O)[C@H]2O)c(=O)n1 [CA],Kd,NrnABs,2270 ± 130 nM
Nc1nc2c(ncn2[C@@H]2O[C@H](COP(=O)(O)O)[C@@H](OP(=O)(O)OC[C@H]3O[C@@H](n4cnc5c(N)ncnc54)[C@H](O)[C@@H]3O)[C@H]2O)c(=O)[nH]1 [GA],Kd,NrnABs,360 ± 130 nM
Nc1nc2c(ncn2[C@@H]2O[C@H](COP(=O)(O)O[C@H]3[C@@H](O)[C@H](n4cnc5c(=O)[nH]c(N)nc54)O[C@@H]3COP(=O)(O)O)[C@@H](O)[C@H]2O)c(=O)[nH]1 [GG],"cleavage of 5'-32P RNA mixture, denaturing PAGE",OrnEc,"dinucleotides are rapidly processed, and only minimal trinucleotide processing was seen"
same,Kd,NrnABs,210 nM
Nc1ncnc2c1ncn2[C@@H]1O[C@H](COP(=O)(O)O[C@H]2[C@@H](O)[C@H](n3ccc(=O)[nH]c3=O)O[C@@H]2COP(=O)(O)O)[C@@H](O)[C@H]1O [UA],Kd,NrnABs,1290 ± 180 nM
Nc1ncnc2c1ncn2[C@@H]1O[C@@H]2COP(=O)(O)O[C@H]3[C@@H](O)[C@H](n4cnc5c(N)ncnc54)O[C@@H]3COP(=O)(O)O[C@H]2[C@H]1O [c-di-AMP],"cleavage of 32P-c-di-AMP, denaturing PAGE",CnpBMs,All CnpB-like proteins exhibited robust hydrolysis of c-di-AMP
same,"cleavage of 32P-c-di-AMP, denaturing PAGE",CnpBMt,only CnpB demonstrated an ability to directly hydrolyze c-di-AMP to AMP
same,"cleavage of 32P-c-di-AMP, denaturing PAGE",GdpP(82–659)Bs,"cytoplasmic portion of B. subtilis GdpP, which is known to hydrolyze c-di-AMP"
B1,Km,[1],325 µM
same,Km,[2],90 µM

# From article PMC9757072, “NrnA is a 5′-3′ exonuclease that processes short RNA substrates in vivo and in vitro” (Nucleic Acids Research, 2022)
